In BigSolDB 2.1:

CCOc1ccc(C=O)cc1O
solubility (mole fraction)
Conditions	283.15 K	288.15 K	293.15 K	298.15 K	303.15 K	308.15 K	313.15 K	318.15 K	323.15 K
in THF	0.0523	0.0624	0.071	0.0842	0.094	0.108	0.123	0.138	0.156
in acetone	0.0425	0.0467	0.0515	0.057	0.0652	0.0718	0.0819	0.092	0.114
in acetonitrile	0.0105	0.0133	0.015	0.0191	0.0228	0.0285	0.0353	0.0406	0.0551
in ethanol	0.0066	0.0078	0.0101	0.012	0.0141	0.0179	0.0224	0.0276	0.0345
in ethyl acetate	0.0166	0.0194	0.0212	0.0259	0.0288	0.0361	0.0416	0.0511	0.0606
in ethyl formate	0.0135	0.0172	0.0196	0.0236	0.0278	0.0341	0.0415	0.0488	0.0605
in isopropanol	0.0035	0.005	0.0063	0.0082	0.01	0.0129	0.0168	0.0216	0.0277
in isopropyl acetate	0.013	0.0156	0.0187	0.0202	0.0227	0.0274	0.0325	0.0387	0.0457
in methanol	0.0072	0.0091	0.0119	0.0159	0.0206	0.0268	0.0362	0.0482	0.0635
in methyl acetate	0.0166	0.0205	0.0263	0.0301	0.0331	0.0409	0.048	0.0557	0.0678
in n-propanol	0.0048	0.0065	0.0077	0.0098	0.0118	0.0149	0.0194	0.0246	0.0312
in toluene	0.0032	0.0037	0.0042	0.0049	0.0057	0.0068	0.0077	0.0092	0.011
